Patent publication US11964052B2, “Lipid compounds and lipid nanoparticle compositions” (SUZHOU ABOGEN BIOSCIENCES CO., LTD., priority 2021, dated 2024)

How the values were obtained:
Assay type in all cases: physicochemical
[1] = Lipid nanoparticle size and polydispersity by dynamic light scattering (Malvern Zetasizer Nano ZS); conditions: LNP of cationic lipid/DSPC/cholesterol/PEG-lipid 50:10:38.5:1.5 with mRNA
Method: (§1) Briefly, a cationic lipid provided herein, DSPC, cholesterol, and PEG-lipid were solubilized in ethanol at a molar ratio of 50:10:38.5:1.5, and mRNA were diluted in 10 to 50 mM citrate buffer, pH=4. The LNPs were prepared at a total lipid to mRNA weight ratio of approximately 10:1 to 30:1 by mixing the ethanolic lipid solution with the aqueous mRNA solution at a volume ratio of 1:3 using a microfluidic apparatus, total flow rate ranging from 9-30 mL/min. Ethanol were thereby removed and replaced by DPBS using dialysis. Finally, the lipid nanoparticles were filtered through a 0.2 μm sterile filter.
(§2) Lipid nanoparticle size were determined by dynamic light scattering using a Malvern Zetasizer Nano ZS (Malvern UK) using a 173° backscatter detection mode. The encapsulation efficiency of lipid nanoparticles were determined using a Quant-it Ribogreen RNA quantification assay kit (Thermo Fisher Scientific, UK) according to the manufacturer's instructions.

[2] = Encapsulation efficiency of lipid nanoparticles, Quant-it Ribogreen RNA quantification assay; conditions: LNP with mRNA
Method: as §1, §2

[3] = Apparent pKa of LNP formulations, TNS fluorescence assay; conditions: LNP cationic lipid/DSPC/cholesterol/DMG-PEG 50/10/38.5/1.5 mol %, pH 3 to 9
Method: As reported in literature, the apparent pKa of LNP formulations correlates with the delivery efficiency of LNPs for nucleic acids in vivo. The apparent pKa of each formulation was determined using an assay based on fluorescence of 2-(p-toluidino)-6-napthalene sulfonic acid (TNS). LNP formulations comprising of cationic lipid/DSPC/cholesterol/DMG-PEG (50/10/38.5/1.5 mol %) in PBS were prepared as described above. TNS was prepared as a 300 uM stock solution in distilled water. LNP formulations were diluted to 0.1 mg/ml total lipid in 3 mL of buffered solutions containing 50 mM sodium citrate, 50 mM sodium phosphate, 50 mM sodium borate, and 30 mM sodium chloride where the pH ranged from 3 to 9. An aliquot of the TNS solution was added to give a final concentration of 0.1 mg/ml and following vortex mixing fluorescence intensity was measured at room temperature in a Molecular Devices Spectramax iD3 spectrometer using excitation and mission wavelengths of 325 nm and 435 nm. A sigmoidal best fit analysis was applied to the fluorescence data and the pKa value was measured as the pH giving rise to half-maximal fluorescent intensity.

SMILES	polydispersity [1]	size (nm) [1] [nm]	Encapsulation Efficiency [2] [%]	Apparant Pka [3]
CCCCCCCCCCCCOCC(CN(CCCCCC(=O)OCC(CCCCCC)CCCCCCCC)CCN(CCO)C1CCC1)OCCCCCC (stereo not drawn) [Compound 23]	0.076	74.73	88.5	5.993
CCCCCCCCCCCCOCC(CN(C)CCN(CCO)C1CCC1)OC(=O)CCCCC (stereo not drawn) [Compound 44]	0.178	112.8	85.2	6.65
CCCCCCCCCCCCOCC(CN(CCCCCC(=O)OCC(CCCCCC)CCCCCCCC)CCN(CCO)C1CC1)OCCCCCCCCCCCC (stereo not drawn) [Compound 27]	0.139	65.62	73.3	5.351
CCCCCCCCCCCCOCC(CN(C)CCN(CCO)C1CCC1)OC(=O)CCCCCCCCCCC (stereo not drawn) [Compound 42]	0.155	82.81	94.4	6.283
CCCCCCCCC(CCCCCCCC)CNC(=O)CCOCC(CN(C)CCN(CCO)C1CCCC1)OCCC(=O)NCC(CCCCCCCC)CCCCCCCC (stereo not drawn) [Compound 57]	0.055	70.05	97.0	7.73
CCCCCCCCCCCCOCC(CN(CCCCCC(=O)OCC(CCCCCC)CCCCCCCC)CCN(CCO)C1CCCC1)OCCCCCCCCCCCC (stereo not drawn) [Compound 29]	0.110	53.73	80.1	5.699
CCCCCCCCCCCCOCC(CN(C)CCN(CCO)C1CCCC1)OCCCCCC (stereo not drawn) [Compound 5]	0.384	78.36	92.4	7.315
CCCCCCCCC(CCCCCCCC)CNC(=O)CCOCC(CN(C)CCO)OCCC(=O)NCC(CCCCCCCC)CCCCCCCC (stereo not drawn) [Compound 50]	0.099	58.14	90.4	8.298
CCCCCCCCCCCCOCC(CN(C)CCN(CCO)C1CCC1)OCCCCCCCCCCCC (stereo not drawn) [Compound 39]	0.162	111.2	94.7	6.712
CCCCCCCCCCCCOCC(CN(CCCCCC(=O)OCC(CCCCCC)CCCCCCCC)CCN(CCO)C1CCCCCC1)OCCCCCCCC (stereo not drawn) [Compound 37]	0.156	51.77	92.70	5.726
CCCCCCCCCCCCOCC(CN(C)CCN(CCO)C1CCCCC1)OCCCCCCCCCCCC (stereo not drawn) [Compound 6]	0.241	126.4	93.4	7.035
CCCCCCC(CCCCCC)COC(=O)CCCCCN(CCN1CCC(O)C1)CC(COC(=O)CCCCC)OC(=O)CCCCC (stereo not drawn) [Compound 63]	0.076	150.2	95.9	6.928
CCCCCCCCCCCCOCC(CN(CCO)C1CCC1)OC(=O)CCCCCCCCCCC (stereo not drawn) [Compound 2]	0.094	69.05	94.5	5.177
CCCCCCCCCCCCOCC(CN(C)CCN(CCO)C1CCCCC1)OCCCCCC (stereo not drawn) [Compound 45]	0.289	68.33	86.8	7.466
CCCCCCCCCCCCOCC(CN(CCCCCC(=O)OCC(CCCCCC)CCCCCCCC)CCN(CCO)C1CCCCC1)OCCCCCCCCCCCC (stereo not drawn) [Compound 30]	0.107	49.64	92.7	5.409

Other lines, results leading:

polydispersity [1]	size (nm) [1] [nm]	Encapsulation Efficiency [2] [%]	Apparant Pka [3]	SMILES
0.048	62.77	92.54	6.072	CCCCCCCCC(CCCCCC)CC(=O)OCC(CCCCN(CCN(CCO)CCCCCC)C1CCC1)COC(=O)CC(CCCCCC)CCCCCCCC (stereo not drawn) [Compound 111]
0.01	83.05	93.44	6.785	CCCCCCCCCCC(=O)OCC(CCCCN(CCO)C1CCCC1)COC(=O)CC(CCCCCC)CCCCCCCC (stereo not drawn) [Compound 84]
0.044	64.08	92.47	6.372	CCCCCCCCCCCCCCCC(=O)OCC(CCCCN(CCO)C1CCCCCC1)COC(=O)CC(CCCCCC)CCCCCCCC (stereo not drawn) [Compound 87]
0.057	75.11	94.7	7.727	CCCCCCCCC(CCCCCCCC)CNC(=O)CCOCC(CN(C)CCN(CCO)C1CCC1)OCCC(=O)NCC(CCCCCCCC)CCCCCCCC (stereo not drawn) [Compound 51]
0.082	73.61	97.0	6.428	CCCCCCCCC(CCCCCCCC)CC(=O)OCC(CCCCN(CCN(C)CCO)C1CCC1)COC(=O)CC(CCCCCCCC)CCCCCCCC [Compound 65]
0.027	98.95	92.20	6.063	CCCCCCCCC(CCCCCC)CC(=O)OCC(CCCCN(CCN(CCC)CCO)C1CCC1)COC(=O)CC(CCCCCC)CCCCCCCC (stereo not drawn) [Compound 80]
0.063	85.46	96.7	8.7	CCCCCCCCCCCCOCC(O)CN(CCCCCC(=O)OCC(CCCCCC)CCCCCCCC)CCN(C)C (stereo not drawn) [Compound 7]
0.019	94.04	92.39	6.182	CCCCCCCCC(CCCCCC)CC(=O)OCC(CCCCN(CCCC)CCN(CCO)C1CCC1)COC(=O)CC(CCCCCC)CCCCCCCC (stereo not drawn) [Compound 83]
0.031	99.66	83.7	6.221	CCCCCCCCCCCCOCC(CN(CCCCCC(=O)OCCCCCCCCCC)CCN(CCO)C1CCC1)OCCCCCC (stereo not drawn) [Compound 49]
0.01	103.64	91.29	5.927	CCCCCCCCC(CCCCCC)CC(=O)OCC(CCCCN(CCN(CCO)C1CCC1)C1CCC1)COC(=O)CC(CCCCCC)CCCCCCCC (stereo not drawn) [Compound 79]
0.046	56.88	89.92	6.439	CCCCCCCCC(CCCCCC)CC(=O)OCC(CCCCN(CC=C(C)C)CCO)COC(=O)CC(CCCCCC)CCCCCCCC (stereo not drawn) [Compound 77]
0.084	55.01	89.42	6.22	CCCCCCCCC(CCCCCC)CC(=O)OCC(CCCCN(CCO)C1CCCCC1)COC(=O)CC(CCCCCC)CCCCCCCC (stereo not drawn) [Compound 68]
0.06	63.54	94.30	5.943	CCCCCCCCCCCCOCC(CN(CCCCCC(=O)OCC(CCCCCC)CCCCCCCC)CCN(CCO)C1CCC1)OCCCCCCCC (stereo not drawn) [Compound 33]
0.063	59.54	92.91	6.309	CCCCCCCCCCCCCCCC(=O)OCC(CCCCN(CCO)C1CCCCCCC1)COC(=O)CC(CCCCCC)CCCCCCCC (stereo not drawn) [Compound 88]
0.111	59.51	92.79	6.488	CCCCC/C=C\C/C=C\CCCCCCCC(=O)OCC(CCCCN(CCO)C1CCCCCCC1)COC(=O)CC(CCCCCC)CCCCCCCC (stereo not drawn) [Compound 101]
0.043	70.38	93.02	7.024	CCCCC/C=C\C/C=C\CCCCCCCC(=O)OCC(CCCCN(CCO)C1CCCC1)COC(=O)CC(CCCCCC)CCCCCCCC (stereo not drawn) [Compound 90]
0.196	77.98	82.2	7.701	CCCCCCCCCCCCOCC(O)CN(CCCCCC(=O)OCC(CCCCCC)CCCCCCCC)CCN(CC)CC (stereo not drawn) [Compound 11]
0.4	56.31	86.1	4.536	CCCCCCCCCCCCOCC(CN(CCO)CCCCCC(=O)OCC(CCCCCC)CCCCCCCC)OC(=O)CCCCC (stereo not drawn) [Compound 14]
